Measurements taken from patent US4939124A, “Treatment and diagnosis of dementia” (Laboratorios Serono S.A., priority 1988, dated 1990).
No end group written: not given here.

How the values were obtained:
[1] = tested on: female in-patients with primary degenerative dementia (Alzheimer like); assay: 8-day GRF (1-29) NH2 therapy, MMS Folstein test and Crichton's scale; assay type: in vivo, human; details: MMS-Folstein test and Crichton's scale test
Description: Twenty female in-patients with primary degenerative dementia (Alzheimer like) aged 67-84 years were divided in two therapy-groups with GRF (1-29) NH2. All patients were treated with this product for 8 days with either of the following schedules: (I) 250 mcg s.c. twice daily (II) 50 mcg i.v. twice daily Therapy was started after a 15-day wash-out period for psychotropic-drugs. Evolution of patients was assessed using the MMS Folstein test and Chrichton's scale test at 12 hours, 24 hours and 7 days after starting with GRF. The statistical evaluation was made using Friedman test with a risk level p<0,01 (highly significant differences).

Male Wistar rats [2] = assay: Locomotor activity in open field paradigm (OUCEM-86), i.c.v. injection; assay type: in vivo; details: for ED50 of change in LA / Emax of change in LA (given as a dose): i.c.v., dose range 0.1 to 10 mcg
Source text: (§1) To clarify whether SS and GRF display at the central level the same antagonistic effect that they have at the pituitary level, the effects of these neuropeptides on several behavioral parameters have been studied using the OUCEM-86^TM (Osaka University Computerized Electronic Maze). The system is integrated by the following components: a Programmable Electronic Platform (PEP) (620×620 mm) equipped with 48 photo beam sensors (OPX-T30); a Programming Panel (PP) (Model BECM-0064) for paradigm stimulation; a Shock Generator Scrambler (SGS) (Model BSG-1065) to apply continuous or discontinuous electric current to the PEP; a Control Station (CS) (BEC 16-Bio Computer Control Station BCS-1105; Bio Medica, Ltd., Osaka) which processes inputs/outputs as an interface device to automatically computerize behavioral parameters; and a Computer System (NEC PC-9801 VM2) with 1 megabyte Random Access Memory (RAM) for data processing and experimental setting.
(§2) Male Wistar rats (175-200 g) (N =5-8 rats/group) received intracerebroventricular (i.c.v.) injections of GRF1-44 and SS-14 over a range of 0.1 to 10 mcg. Then the rats were studied in the OUCEM under two different paradigms (e.g., open field and maze paradigms).
The animals were placed in the PEP for 30-minute periods and locomotor activity (LA) was automatically recorded in an open field paradigm. Total LA is represented as total inputs (I/O) including movements in four-footed position (4F) and in two-footed position (2F), grooming, rearing and jumping activity, while linear (horizontal) movements (4F) are represented as pulses per minute (pm) or cm^2 /min

Male Wistar rats [3] = assay: Locomotor activity and learning in maze paradigm (escape from 1.5 mA shock area), i.c.v. injection; assay type: in vivo
Description: The animals had to learn to escape from the shock area in order to avoid a continuous 1.5 mA electric shock. Experimental time --30 minutes.
The rats were treated intracerebroventricularly with SS-14 (1 mcg) and GRF1-44 (1 mcg) and their behavior was automatically recorded by computer using the maze paradigm shown in FIG. 1. p/t denotes pulses per time unit (minute). Locomotor activity was quantified in pulses per minute or cm^2 /min. Total inputs (I/O) in neutral position (white bars) and shock position (black bars) denote how many times the animals enter neutral and shock areas. The N/S ratio results from dividing I/O in neutral position by I/O in shock position and is interpreted as an index of learning in the 30-minute experimental period. The positional time (seconds) represents how long the animals stay in neutral (white bars) or shock (black bars) areas. N-sp and S-sp (in seconds) indicate the time-latency per movement or input in neutral (white bars) and shock (black bars) areas, respectively.
as §1, §2
The amount of inputs (I/O) induced by SS was 103.5±29.5 (control =216.25±55.19, t=8.49, p<0.005) in the neutral area (NA) and 77.14±13.5 I/O in the shock area (SA) (control =298±40, t=1.26, n.s.). GRF generated 459.35±32.5 I/O in NA (t=18.13, p<0.005) and 340.5±63.5 I/O in SA (t=9.07, p<0.005) (FIGS. 1C,3). The NA/SA (N/S) ratios for control, SS- and GRF-treated rats were 0.72, 1.33, and 1.35, respectively (FIG. 2).

Compound	overall effect confirmed by re-evaluation after end of administration [1]	ED50 of change in LA (Male Wistar rats [2])	Emax of change in LA (given as a dose) (Male Wistar rats [2])	locomotor activity (LA), open field (Male Wistar rats [2]; 1 mcg i.c.v. (SS-14 / GRF1-44), 30-minute period, control 31.16±6.90 pm)	locomotor activity (LA), maze paradigm (Male Wistar rats [3]; 1 mcg i.c.v., 30 minutes, control 17.12±5.42 pm)	NA/SA (N/S) ratio (index of learning) (Male Wistar rats [3]; 1 mcg i.c.v., control 0.72)	amount of inputs (I/O) in the neutral area (NA) (Male Wistar rats [3]; 1 mcg i.c.v., control 216.25±55.19)	amount of inputs (I/O) in the shock area (SA) (Male Wistar rats [3]; 1 mcg i.c.v., control 298±40)	learning abilities (N/S ratio as index) (Male Wistar rats [3]; doses of approximately 6.10×10^-10 mol (SS) and 1.98×10^-10 mol (GRF), i.c.v.)	comparison of SS and GRF in improving learning (Male Wistar rats [3]; maze paradigm, i.c.v.)
GRF (1-29) NH2: GRF product given s.c. or i.v. to dementia patients; called GRF in Example 3 (YADAIFTNSYRKVLGQLSARKLLQDIMSR-NH2; UniProt P01286 32-60, looked up, fragment)	significant effect	–	–	–	–	–	–	–	–	–
GRF1-29: 1-29 segment of growth hormone releasing factor	–	297 pmol	5.95 nmol	–	–	–	–	–	–	–
GRF1-44: 1-44 segment of growth hormone releasing factor, injected i.c.v. in rats; called GRF in Examples 1-2	–	99.1 pmol	1.98 nmol	–	–	–	–	–	–	–
C[C@H](N)C(=O)NCC(=O)N[C@H]1CSSC[C@@H](C(=O)O)NC(=O)[C@H](CO)NC(=O)[C@H]([C@@H](C)O)NC(=O)[C@H](Cc2ccccc2)NC(=O)[C@H]([C@@H](C)O)NC(=O)[C@H](CCCCN)NC(=O)[C@H](Cc2c[nH]c3ccccc23)NC(=O)[C@H](Cc2ccccc2)NC(=O)[C@H](Cc2ccccc2)NC(=O)[C@H](CC(N)=O)NC(=O)[C@H](CCCCN)NC1=O [SS, somatostatin]	–	1830 pmol	6.10 nmol	20.88±2.82 pm	6.01±1.45 pm	1.33	103.5±29.5 I/O	77.14±13.5 I/O	improve learning abilities	more effective than GRF in improving learning
